Laboratory results from EP4592291A1, “USE OF PEMETREXED NEAR-INFRARED FLUORESCENT MOLECULE TARGETING ALPHA-TYPE FOLATE RECEPTOR AS FLUORESCENT TRACER” (Nanjing Nuoyuan Medical Devices Co., Ltd, priority 2022, dated 2024).

Legend:
[1] = test system: cell line H1299 with high folate receptor α expression; assay: Confocal cell imaging of tracer uptake, cell line with high folate receptor α expression; assay type: cell-based; conditions: 100 nM tracer, incubated 1 h
Method: (§1) 4. In order to verify the effect of the present disclosure, the following verification experiment was conducted: • (1) Use of a pemetrexed near-infrared fluorescent molecule in the aspect of differentiating a tumor with high folate receptor α expression from inflammation, that is, specific recognition of the pemetrexed near-infrared fluorescent molecule on a cell line with high folate receptor α expression: a cell line H1299 with high folate receptor α expression, a cell line A549 with low folate receptor α expression and a cell line RAW264.7 with high folate receptor β expression were selected. The cells were cultured in a Roswell Park Memorial Institute (RPPMI) culture medium containing 10% fetal bovine serum (FBS) and 1% […] in moist air containing 5% CO2 and 95% air at 37°C. The cells were incubated for 1 h in a confocal vessel by utilizing a 100 nM pemetrexed near-infrared fluorescent tracer. The cells after incubation were washed with PBS, stained with DPAI, fixed with paraformaldehyde and then photographed.

[2] = test system: cell line A549 with low folate receptor α expression; assay: Confocal cell imaging of tracer uptake, cell line with low folate receptor α expression; assay type: cell-based; conditions: folate receptor α negative A549 cell, 100 nM tracer, incubated 1 h
Method: as §1

[3] = test system: cell line RAW264.7 with high folate receptor β expression; assay: Confocal cell imaging of tracer uptake, cell line with high folate receptor β expression; assay type: cell-based; conditions: RAW264.7, 100 nM tracer, incubated 1 h
Method: as §1

[4] = test system: H1299 tumor-bearing mice with high folate receptor α expression; assay: In vivo near-infrared imaging of tumor-bearing mice, high folate receptor α expression; conditions: tail vein injection, dose of 10 nm, after 2 h
Method: (§2) (2) The pemetrexed near-infrared fluorescent molecule was used for specifically recognizing non-small lung cancer tissues with high folate receptor α expression: the pemetrexed near-infrared fluorescent tracer was administrated to H1299 and A549 tumor-bearing mice via tail vein injection at a dose of 10 nm. After 2 h, imaging effects were observed through an animal imaging instrument and tissue biological distribution of mice was analyzed.

[5] = test system: A549 tumor-bearing mice with low folate receptor α expression; assay: In vivo near-infrared imaging of tumor-bearing mice, low folate receptor α expression; conditions: tail vein injection, dose of 10 nm, after 2 h
Method: as §2

[6] = test system: non-small cell lung cancer slice with high folate receptor α expression; assay: Fluorescence of tumor slices, H1299 tumor plus peritonitis mouse model; assay type: in vivo; conditions: H1299 tumor-bearing mouse with peritonitis, FIG. 6
Description: (§3) The establishment of the inflammation model was verified by utilizing immunohistochemistry slices. […] By utilizing different specificities to different folate receptor subtypes, the tumors are effectively differentiated from the inflammatory tissues.

[7] = test system: inflammatory tissue slice with high folate receptor β expression; assay: Fluorescence of inflammatory tissue slices, H1299 tumor plus peritonitis mouse model; assay type: in vivo; conditions: H1299 tumor-bearing mouse with peritonitis, FIG. 7
Description: as §3

## CC1(C)C(=CC=C2CCCC(C=CC3=[N+](CCCCS(=O)(=O)[O-])c4ccc(S(=O)(=O)O)cc4C3(C)C)=C2Oc2ccc(C[C@H](NC(=O)c3ccc(CCc4c[nH]c5[nH]c(N)nc(=O)c45)cc3)C(=O)O)cc2)N(CCCCS(=O)(=O)O)c2ccc(S(=O)(=O)O)cc21
[1]
  tracer fluorescence in the cell (internalization): seen in the entire cytoplasm
[2]
  tracer fluorescence in the cell (internalization): not observed
[3]
  fluorescence in the cell: not detected
[4]
  specific recognition of tumor (imaging effect): capable of specifically recognizing
  tumor background-to-signal ratio: good
[5]
  targeting effect (imaging): not detected
[6]
  fluorescence intensity of tissue slice: relatively high intensity
[7]
  fluorescence of tissue slice: almost has no fluorescence
